Measurements taken from patent publication US20210299193A1, “SYNBIOTIC COMPOSITION FOR IMPROVING IMMUNE RESPONSE AND ANTIOXIDANT CAPACITY DURING AGING AND A PROCESS FOR THE PREPARATION THEREOF” (COUNCIL OF SCIENTIFIC & INDUSTRIAL RESEARCH, priority 2018, published 2021).

Key:
[1] = test system: probiotic bacteria (Lactobacillus species); assay: Effect of EGCG on growth of probiotic bacteria (OD 600 nm); format: cell-based; settings: 0.1% EGCG in media, vs control without EGCG
Excerpt: (§1) FIG. 1. Effect of EGCG on growth of probiotic and pathogenic bacterial species. The growth was monitored by inoculating a 5% inoculum of respective bacterial species into media containing 0.1% of EGCG. Growth was compared to that of control (without EGCG) to determine the influence of EGCG by spectrophotometric method (600 nm). Lactobacillus rhamnosus (LR); Lactobacillus fermentum (LF); Lactobacillus planatarum (LP); Escherichia coli (EC; MTCC 43); Salmonella typhi (ST; MTCC 733); Pseudomonas aeruginosa (PS; MTCC 424); Staphylococcus aureus (SA; MTCC 96); Klebsiella pneumoniae (K; MTCC 109); Shigella flexneri (SF; MTCC 1457); Vibrio cholera (VC; MTCC 3904).
(§2) To test prebiotic efficacy, the effect of EGCG on growth of probiotic bacteria (Lactobacillus species) and pathogenic bacteria [Escherichia coli (EC); Salmonella typhi (ST); Pseudomonas (PS); Staphylococcus aureus (SA); Klebsiella (K); Shigella flexneri (SF); Vibrio cholera (VC)] was assessed. The probiotic bacteria were isolated, identified and characterized while the pathogenic bacteria were procured from MTCC, Chandigarh.

pathogenic bacteria = assay: Effect of EGCG on growth of pathogenic bacteria (OD 600 nm); format: cell-based; settings: 0.1% EGCG in media, vs control without EGCG
Excerpt: as §1, §2

splenocytes = assay: Flow cytometric analysis of splenocyte T cell sub-populations and activation status in aging animals; format: in vivo, swiss albino mice; settings: 16 months old mice, oral supplementation 30 days
Description: The probiotic Lactobacillus, EGCG or a combination of the two were orally administered to aged animals for 31 days before sacrificing and subsequent analysis of various immune and oxidative stress associated parameters.
Effect of synbiotics supplementation on T cells sub-population of aging animals. Animals were fed with respective diets for 31 days following which splenocytes were analyzed by flow cytometry. (A) %CD3+ cells (B) %NK cells and (C) %NKT cells. Bars with different letter indicate significant difference at p<0.05.
Effect of synbiotics supplementation on activation status of T cells sub-population of aging animals. Animals were fed with respective diets for 31 days following which splenocytes were analyzed by flow cytometry. (A) Activated T cells (B) Activated NK cells and (C) Activated NKT cells. Bars with different letter indicate significant difference at p<0.05.
The synbiotic composition of EGCG and probiotic Lactobacillus sp was assessed for effects on cellular immune response using aging murine model. Animals (16 months old) were randomized into four groups of six mice each: 1 control group and 3 experimental groups comprising of either only EGCG (PRE), probiotic Lactobacillus sp (PRO) or a combination of both (SYN). All animals were fed on commercially available pelleted mice chow (Golden feeds, New Delhi, India) and water ad libitum. The experimental animal groups were each supplemented with EGCG (@100 mg/kg/animal/day), probiotic Lactobacilli sp (10^8 cfu/ml) or a combination of both above (synbiotic) respectively for 30 consecutive days. At the end of the feeding regimen, the animals were sacrificed for various immunological and antioxidative analysis.

## O=C(O[C@@H]1Cc2c(O)cc(O)cc2O[C@@H]1c1cc(O)c(O)c(O)c1)c1cc(O)c(O)c(O)c1 [EGCG, Epigallocatechin gallate]
[1]; 5% inoculum, average over probiotic species
  average decrease in growth of probiotics: 14.05%
[1]; maximum among probiotic species
  decrease in growth of probiotics, Max: 31%
[1]; minimum among probiotic species
  decrease in growth of probiotics, Min: 1.4%
Pathogenic bacteria; 5% inoculum, average over all pathogens
  average growth inhibition of pathogens: 52.05%
Pathogenic bacteria; maximum among pathogens
  growth inhibition of pathogens, Max: 89.88%
Pathogenic bacteria; minimum among pathogens
  growth inhibition of pathogens, Min: 32.7%
splenocytes
  natural killer T cells (NKT) subpopulation: no significant difference
splenocytes; vs control group
  activation of NK cells: decrease
  activation status of NKT cells: no changes
  numbers of natural killer cells (NK): appeared to decrease
